Converted amounts (≈) assume the structure as drawn. The source made the active and inactive calls. The rule behind the calls is not given here.
Experiments:
Staphylococcus aureus [1] = assay: Antibacterial activity against Staphylococcus aureus MTCC 96 after 24 hrs by well diffusion method; assay type: functional; conditions: MTCC 96, 24 h
Bacillus subtilis = assay: Antibacterial activity against Bacillus subtilis MTCC 121 after 24 hrs by well diffusion method; assay type: functional; conditions: MTCC 121, 24 h
Staphylococcus aureus [2] = assay: Antibacterial activity against Staphylococcus aureus MLS16 MTCC 2940 after 24 hrs by well diffusion method; assay type: functional; conditions: MLS16 MTCC 2940, 24 h
Micrococcus luteus = assay: Antibacterial activity against Micrococcus luteus MTCC 2470 after 24 hrs by well diffusion method; assay type: functional; conditions: MTCC 2470, 24 h
Raoultella planticola = assay: Antibacterial activity against Klebsiella planticola MTCC 530 after 24 hrs by well diffusion method; assay type: functional; conditions: MTCC 530, 24 h
Escherichia coli = assay: Antibacterial activity against Escherichia coli MTCC 739 after 24 hrs by well diffusion method; assay type: functional; conditions: MTCC 739, 24 h
Pseudomonas aeruginosa = assay: Antibacterial activity against Pseudomonas aeruginosa MTCC 2453 after 24 hrs by well diffusion method; assay type: functional; conditions: MTCC 2453, 24 h
HeLa [3] = assay: Cytotoxicity against human HeLa cells after 24 hrs by MTT assay; assay type: functional, cell-based
HepG2 [4] = assay: Cytotoxicity against human HepG2 cells after 24 hrs by MTT assay; assay type: functional, cell-based; conditions: HepG2, 24 h
A549 [5] = assay: Cytotoxicity against human A549 cells after 24 hrs by MTT assay; assay type: functional, cell-based; conditions: A549, 24 h
COLO 205 [6] = assay: Cytotoxicity against human COLO205 cells after 24 hrs by MTT assay; assay type: functional, cell-based; conditions: COLO 205, 24 h
HepG2 [7] = assay: Cytotoxicity against human HepG2 cells at >100 uM after 24 hrs by MTT assay; assay type: functional, cell-based
A549 [8] = assay: Cytotoxicity against human A549 cells at >100 uM after 24 hrs by MTT assay; assay type: functional, cell-based
HeLa [9] = assay: Cytotoxicity against human HeLa cells at >100 uM after 24 hrs by MTT assay; assay type: functional, cell-based
COLO 205 [10] = assay: Cytotoxicity against human COLO205 cells at >100 uM after 24 hrs by MTT assay; assay type: functional, cell-based

Row | MIC (Staphylococcus aureus [1]) [µg/mL] | MIC (Bacillus subtilis) [µg/mL] | MIC (Staphylococcus aureus [2]) [µg/mL] | MIC (Micrococcus luteus) [µg/mL] | MIC (Escherichia coli) [µg/mL] | MIC (Pseudomonas aeruginosa) [µg/mL] | SMILES | MIC (Raoultella planticola) [µg/mL] | IC50 (HeLa [3]) [µM] | IC50 (HepG2 [4]) [µM] | IC50 (A549 [5]) [µM] | IC50 (COLO 205 [6]) [µM] | Activity (HepG2 [7]) | Activity (A549 [8]) | Activity (HeLa [9]) | Activity (COLO 205 [10])
1 | 7.8 to 125 (≈ 23.2 to 372 µM) | 7.8 to 125 (≈ 23.2 to 372 µM) | 7.8 to 125 (≈ 23.2 to 372 µM) | 7.8 to 125 (≈ 23.2 to 372 µM) | 7.8 to 125 (≈ 23.2 to 372 µM) | 7.8 to 125 (≈ 23.2 to 372 µM) | CCNC(=O)Cn1nc(C(F)(F)F)c2c(C)c3ccccc3nc21 | 7.8 to 125 (≈ 23.2 to 372 µM) | 19.2 | 20.8 | 22.8 | 16.4 | – | – | – | –
2 | 7.8 to 125 (≈ 20.7 to 332 µM) | 7.8 to 125 (≈ 20.7 to 332 µM) | 7.8 to 125 (≈ 20.7 to 332 µM) | 7.8 to 125 (≈ 20.7 to 332 µM) | 7.8 to 125 (≈ 20.7 to 332 µM) | 7.8 to 125 (≈ 20.7 to 332 µM) | Cc1c2ccccc2nc2c1c(C(F)(F)F)nn2CC(=O)N1CCCCC1 | 7.8 to 125 (≈ 20.7 to 332 µM) | 33.9 | 36.6 | 32.5 | 25.4 | – | – | – | –
3 | 7.8 to 125 (≈ 23.2 to 372 µM) | 7.8 to 125 (≈ 23.2 to 372 µM) | 7.8 to 125 (≈ 23.2 to 372 µM) | 7.8 to 125 (≈ 23.2 to 372 µM) | 7.8 to 125 (≈ 23.2 to 372 µM) | 7.8 to 125 (≈ 23.2 to 372 µM) | Cc1nn(CC(=O)NC2CCCCC2)c2nc3ccccc3c(C)c12 | 7.8 to 125 (≈ 23.2 to 372 µM) | 14.2 | 10.8 | 12.6 | 20.1 | – | – | – | –
4 | 7.8 to 125 (≈ 18.2 to 291 µM) | 7.8 to 125 (≈ 18.2 to 291 µM) | 7.8 to 125 (≈ 18.2 to 291 µM) | 7.8 to 125 (≈ 18.2 to 291 µM) | 7.8 to 125 (≈ 18.2 to 291 µM) | 7.8 to 125 (≈ 18.2 to 291 µM) | Cc1c2ccccc2nc2c1c(C(F)(F)F)nn2CC(=O)Nc1ccc([N+](=O)[O-])cc1 | 7.8 to 125 (≈ 18.2 to 291 µM) | 38.9 | – | – | 36.2 | inactive | inactive | – | –
5 | 7.8 to 125 (≈ 26.5 to 425 µM) | 7.8 to 125 (≈ 26.5 to 425 µM) | 7.8 to 125 (≈ 26.5 to 425 µM) | 7.8 to 125 (≈ 26.5 to 425 µM) | 7.8 to 125 (≈ 26.5 to 425 µM) | 7.8 to 125 (≈ 26.5 to 425 µM) | Cc1nn(CC(=O)NC2CC2)c2nc3ccccc3c(C)c12 | 7.8 to 125 (≈ 26.5 to 425 µM) | 16.7 | 15.2 | 14.3 | 11.9 | – | – | – | –
6 | 7.8 to 125 (≈ 18.8 to 302 µM) | 7.8 to 125 (≈ 18.8 to 302 µM) | 7.8 to 125 (≈ 18.8 to 302 µM) | 7.8 to 125 (≈ 18.8 to 302 µM) | 7.8 to 125 (≈ 18.8 to 302 µM) | 7.8 to 125 (≈ 18.8 to 302 µM) | COc1ccc(NC(=O)Cn2nc(C(F)(F)F)c3c(C)c4ccccc4nc32)cc1 | 7.8 to 125 (≈ 18.8 to 302 µM) | – | – | – | – | inactive | inactive | inactive | inactive
7 | 7.8 to 125 (≈ 18.5 to 297 µM) | 7.8 to 125 (≈ 18.5 to 297 µM) | 7.8 to 125 (≈ 18.5 to 297 µM) | 7.8 to 125 (≈ 18.5 to 297 µM) | 7.8 to 125 (≈ 18.5 to 297 µM) | 7.8 to 125 (≈ 18.5 to 297 µM) | Cc1c2ccccc2nc2c1c(C(F)(F)F)nn2CC(=O)N1CCN(CCO)CC1 | 7.8 to 125 (≈ 18.5 to 297 µM) | 28.2 | 30.2 | 31.1 | 19.8 | – | – | – | –
8 | 7.8 to 125 (≈ 20.7 to 332 µM) | 7.8 to 125 (≈ 20.7 to 332 µM) | 7.8 to 125 (≈ 20.7 to 332 µM) | 7.8 to 125 (≈ 20.7 to 332 µM) | 7.8 to 125 (≈ 20.7 to 332 µM) | 7.8 to 125 (≈ 20.7 to 332 µM) | Cc1c2ccccc2nc2c1c(C(F)(F)F)nn2CC(=O)NC1CCCC1 | 7.8 to 125 (≈ 20.7 to 332 µM) | – | – | – | – | inactive | inactive | inactive | inactive
9 | 7.8 to 125 (≈ 16.1 to 259 µM) | 7.8 to 125 (≈ 16.1 to 259 µM) | 7.8 to 125 (≈ 16.1 to 259 µM) | 7.8 to 125 (≈ 16.1 to 259 µM) | 7.8 to 125 (≈ 16.1 to 259 µM) | 7.8 to 125 (≈ 16.1 to 259 µM) | O=C(Cn1nc(C(F)(F)F)c2c(-c3ccccc3)c3ccccc3nc21)N1CCN(CCO)CC1 | 7.8 to 125 (≈ 16.1 to 259 µM) | – | – | – | – | inactive | inactive | inactive | inactive
10 | 7.8 to 125 (≈ 21.6 to 347 µM) | 7.8 to 125 (≈ 21.6 to 347 µM) | 7.8 to 125 (≈ 21.6 to 347 µM) | 7.8 to 125 (≈ 21.6 to 347 µM) | 7.8 to 125 (≈ 21.6 to 347 µM) | 7.8 to 125 (≈ 21.6 to 347 µM) | COc1ccc(NC(=O)Cn2nc(C)c3c(C)c4ccccc4nc32)cc1 | 7.8 to 125 (≈ 21.6 to 347 µM) | 20.4 | 22.2 | 25.6 | 18.9 | – | – | – | –
